Test results: article PMC5684143, “New melanocortin-like peptide of E. coli can suppress inflammation via the mammalian melanocortin-1 receptor (MC1R): possible endocrine-like function for microbes of the gut” (NPJ Biofilms and Microbiomes, 2017)

Assays:
RAW 264.7 cells [1] = assay: HMGB1-induced TNF release by RAW 264.7 macrophage-like cells; assay type: cell-based, murine
Protocol: Fig. 1 MECO-1 attenuates HMGB1-induced TNF release by macrophages in culture. Murine macrophage-like RAW 264.7 cells were incubated for up to 24 h with purified recombinant HMGB1 (0.1 mg/ml) in the absence or presence of MECO-1 (Panel a), or alpha-MSH (Panel b), at 10^−10 and 10^−12 M. The levels of TNF in the culture medium were determined by ELISA and expressed as mean ± SEM of two independent experiments (in duplicate). *p < 0.05, **p < 0.01 vs. control (“HMGB1 alone”). […] In panels c and d, cells were incubated with HMGB1 for 6 h with or without MECO-1 or alpha-MSH (10^−16–10^−6 M). Data represent mean ± SEM of three independent experiments performed in duplicate. With 10^−14 M peptide, results were significant at *p < 0.05, and at 10^−12 M or more were typically **p < 0.01. In our experiments, at concentrations of MECO-1, alpha-MSH, and ACTH of around 1 nM and higher, dose response curves often reverse direction, i.e., turn upward. The reversal is more clearly seen in Fig. 2. The mechanism of the reversal is not known. (Desensitization, receptor inactivation, receptor internalization, and dissociation of dimeric receptors are all plausible candidates.) As a result, the shape of the lower part of the curve and the actual inflection point may vary from experiment to experiment. This feature may be missed when results of several experiments are combined
(§1) Murine macrophage-like RAW 264.7 cells were obtained from American Type Culture Collection, and were grown in Dulbecco’s Modified Eagle’s Medium (DMEM, Life Technologies) containing 10% (vol/vol) heat-inactivated fetal bovine serum (FBS, Hyclone Lab. Inc.), penicillin 100 U/ml, and streptomycin 100 μg/ml (BioWhittaker Inc.). Cells were suspended in medium and incubated in 24-well or 48-well tissue-culture plates overnight in a humidified incubator (37 °C, 5% CO2). Growth medium was removed and replaced by Opti-MEM I serum-free medium (Life Technologies) overnight. In the experiments, cell monolayers were stimulated with HMGB1 or LPS, in the absence or presence of MECO-1 or alpha-MSH; cell-free supernatants were assayed for TNF by ELISA or HMGB1 by western blotting.
(§2) Concentrations of TNF and IL-6 were each determined using a commercially available enzyme-linked immunosorbent assay (ELISA) kit (R&D System Inc.) as previously described.[34] The levels of TNF or IL-6 were calculated with reference to standard curves.
Fig. 3 Antibody to MC1R blocks suppressant effect of MECO-1 and alpha-MSH. Murine macrophage-like RAW 264.7 cells were pretreated with specific antibodies (“anti-MC1R Ab”) against melanocortin-1 receptor (MC1R) for 10 min prior to addition of HMGB1 in the absence or presence of MECO-1 or alpha-MSH at 10^−12 M. At 6 h, the TNF content of the cell-free medium was determined by ELISA, and expressed as mean ± SEM of two independent experiments performed in duplicate. ACTH at the same concentration gave results that were indistinguishable from those of alpha-MSH and MECO-1 (data not shown)

RAW 264.7 cells [2] = assay: LPS-induced TNF release by RAW 264.7 cells; assay type: cell-based, murine; conditions: LPS 10 ng/ml; peptides 10^-12 M; agouti 10-10^5 pM
Protocol: as §1, §2
Fig. 2 Cytokine-induced TNF release inhibited by MECO-1. a Lipopolysaccharide (LPS), derived from the cell wall of Gram-negative bacteria, is a TLR4 and TLR2 agonist. RAW 264.7 cells were treated with MECO-1 and LPS simultaneously and incubated overnight. Supernatants were tested for TNF with ELISA. b Poly I:C, synthetic double stranded RNA, is recognized by TLR3. RAW 264.7 cells were pre-treated with MECO-1 and then stimulated with Poly I:C. Supernatants were tested in ELISA by TNF. c Peptidoglycan (PGN), another TLR2 agonist, is ubiquitous in the cell wall of bacteria. RAW 264.7 cells were pre-treated with MECO-1 and then stimulated with PGN; after overnight stimulation, supernatants were harvested and tested for TNF ELISA. d HMGB-1. Each vertical bar is the mean of three experimental points, using HMGB-1 to induce TNF release. Three sets of three experiments were used for the measurement of inhibition
Fig. 5 a Bioactive analogues of MECO-1. Murine macrophage-like RAW 264.7 cells were incubated with lipopolysaccharide (LPS, 4 ng/ml) in the absence or presence of MECO-1 or BACTN or BACFR, synthetic peptides based on the C-termini of EF-G of Bacteroides thetaiotamicron and Bacteroides fragilis. EFG-2 refers to human mitochondrial EFG-2 (mtEFG2). For Bacteroides thetaiotamicron, we used a 38-mer consisting of residues 681–703 shown in Fig. 4c followed by 704–718 QDKLIKDFEAKQTEE. For Bacteroides fragilis, we used a 33-mer consisting of residues, 681–703 shown in Fig. 4c followed by 704–713 = QDKLIKDFES. At 6 h after stimulation, aliquots of cell-free medium were examined. In other experiments, the synthetic peptide based on human mitochondrial EF-G1 (mtEFG1) gave results indistinguishable from EF-G2 (data not shown). The precise structure of the synthetic peptides is indicated in the text (see section “Results” and Table 1). Shown is a representative experiment.

RAW 264.7 cells [3] = assay: LPS-induced HMGB1 release by RAW 264.7 cells (western blot); assay type: cell-based, murine; conditions: LPS 100 ng/ml, peptide 10^-10 M, 16-20 hrs, four independent experiments, P < 0.01
Protocol: as §1, with “In the experiments, cell monolayers were stimulated with HMGB1 or LPS, in the absence or presence of MECO-1 or alpha-MSH; cell-free supernatants were assayed for TNF by ELISA or HMGB1 by western blotting.” left out
The levels of HMGB1 in the culture medium or murine serum were measured by western immunoblotting as previously described.[30] […] The relative band intensity was quantified by using the NIH image 1.59 software. The levels of HMGB1 (expressed as % maximum effect) were calculated with reference to standard curves generated with purified rHMGB1 and expressed as mean ± SEM of four experiments.
Murine macrophage-like RAW 264.7 cells were incubated with LPS (100 ng/ml) in the absence or presence of MECO-1 or alpha-MSH at 10^-10 M. At 16-20 hrs after stimulation, aliquots of cell-free medium were examined. HMGB1 levels in the (conditioned) culture medium were expressed as mean ± SEM of four independent experiments with the peak level (obtained with LPS) set at 100%. […]

[4] = system: human peripheral blood mononuclear cells (PBMC); assay: HMGB1-induced TNF release by human PBMC-derived macrophages; assay type: cell-based; conditions: differentiated human macrophages; HMGB1 6 hours; ELISA; three independent experiments in duplicate
Protocol: Human PBMC were isolated by density gradient through Ficoll-Paque^TM PLUS centrifugation (Amersham Pharmacia Biotech), and suspended in RPMI 1640 containing 10% (vol/vol) heat-inactivated human serum (BioWhittaker Inc.), penicillin 100 U/ml, and streptomycin 100 μg/ml, and incubated at 37 °C in a humidified incubator with 5% CO2 atmosphere overnight. Non-adherent cells were discarded. Adherent monocytes were washed twice with PBS and were then suspended in 12-well and 24-well tissue culture plates and incubated in the same medium but now enriched with 2.5 ng/ml macrophage colony-stimulating factor for 5–7 days.[33] […]
as §2
Human peripheral blood mononuclear cells (PBMC) were isolated by density gradient centrifugation through Ficoll-PaqueTM PLUS, and cultured for 5-7 days in medium containing macrophage colony-stimulating factor (2.5 ng/ml). […] The content of TNF in the cell-free medium was determined by ELISA and expressed as mean ± SEM of three independent experiments performed in duplicate. *p< 0.05, **p< 0.01 vs. control (=HMGB1 alone without added melanocortin peptide).

With `O=S(=O)(NCCNC/C=C/c1ccc(Br)cc1)c1cccc2cnccc12` [H89] the “effect of H89 on peptide-mediated reduction of HMGB1-induced TNF accumulation” value (RAW 264.7 cells [1]; H89 1mM added 10 minute before, peptides 10^-10 M, 6h, two independent experiments in duplicate) was “abrogated the effects of the three peptides”.

Mouse agouti (93-132)-NH2 was tested, and the “effect of agouti on attenuation by MECO-1 and alpha-MSH of LPS-induced TNF release” value (RAW 264.7 cells [2]) was “reversed the attenuation”.

With “adrenocorticotropin (SYSMEHFRWGKPVGKKRRPVKVYPNGAEDESAEAFPLEF; Corticotropin; UniProt P01189 138-176, looked up) [ACTH, mammalian melanocortin hormone ACTH (1-39), purchased from Bachem]” the “LPS-induced HMGB-1 secretion” value (RAW 264.7 cells [3]) was “indistinguishable from MECO-1 and alpha-MSH”, the “attenuation of HMGB-1-induced TNF release” value [4] was “very similar results” and the “suppression of HMGB-1-induced TNF release” value (RAW 264.7 cells [1]; RAW 264.7 cells, data not shown) was “highly significant suppression, typically in the subpicomolar range”. For the same compound, the “TNF accumulation with HMGB1 on co-incubation with peptide” value (RAW 264.7 cells [1]; peptide 10^−12–10^−8 M) was “substantially reduced”.
